Experimental findings from patent publication US9771378B2 (Denali Therapeutics, Inc., priority 2014, dated 2017) are described below.

For the experiment, the system named is Aβ42 (human neuroglioma H4 cells expressing human wild type APP751). In words: In vitro cell screening assay with sandwich ELISA quantification of Aβ42 peptide. It counts as cell-based. The note with it: H4 cells stably expressing human wild type APP751; Pro293 chemically defined medium; compounds 0.003-10 μM; incubated overnight (16-18 h); supernatant Aβ42 by sandwich ELISA; normalized to DMSO and DAPT; read-out: Aβ42 H4 Prot Fre IC50. In outline:
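Aβ42 in supernatants was quantified by sandwich ELISA with C-terminal-specific capture and 4G8-HRP detection, absorbance at 450 nm. Stable APP751-expressing human H4 cells received compound at 0.003-10 μM (0.33% DMSO) overnight (16-18 h). IC50 was derived from percent-of-DMSO-control data by nonlinear variable-slope fit.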
Regarding `Cc1cn(-c2ccc(Nc3ncc4c(n3)N(C)C(c3cc(F)c(F)cc3Cl)CO4)cc2F)cn1` (single isomer, unassigned; (-)) [Example 169B], the IC50 came to 2260 nM.

Turning to `Cc1cc(-c2ccc(Nc3ncc4c(n3)N(C)C(c3cc(F)c(F)c(F)c3)CO4)cc2F)ccn1` (racemic) [Example 36], the concentration for half-maximal inhibition (IC50) worked out at 162 nM.

Take `COc1cc(Nc2ncc3c(n2)N(C)C(CC(F)(F)F)CO3)cnc1-n1cnc(C)c1` (single isomer, unassigned; (-)) [Example 238A]: the IC50 stood at 648 nM.

As for `Cc1cn(-c2ccc(Nc3ncc4c(n3)N(C)C3(CC3)CO4)nc2)cn1` [Example 265], the IC50 was greater than 3000 nM.

For the compound `Cc1cn(-c2ccc(Nc3ncc4c(n3)N(C)[C@@H](CO)CO4)cc2F)cn1` [Example 170, (S)-(2-((3-fluoro-4-(4-methyl-1H-imidazol-1-yl)phenyl)amino)-8-methyl-7,8-dihydro-6H-pyrimido [5,4-b] [1, 4]oxazin-7-yl) methanol], the IC50 turned out to be 1240 nM.

Consider `COc1cc(Nc2ncc3c(n2)N2C(=O)CCC2CO3)cnc1-n1cnc(C)c1` (single isomer, unassigned; (-)) [Example 302B, (−)-2-((5-methoxy-6-(4-methyl-1H-imidazol-1-yl)pyridin-3-yl)amino)-6,6a, 7,8-tetrahydro-9H-pyrimido [5,4-b] pyrrolo [1,2-d] [1, 4] oxazin-9-one], for which the IC50 was 2900 nM.

On to `Cc1cn(-c2ccc(Nc3ncc4c(n3)N(C)C(C)CO4)cn2)cn1` (single isomer, unassigned; (-)) [Example 194B], for which the IC50 was greater than 3000 nM.

Take `COc1cc(Nc2ncc3c(n2)N2CCOC[C@@H]2CO3)ccc1-n1cnc(C)c1` [Example 296]: the IC50 stood at 759 nM.

Regarding `COc1cc(Nc2ncc3c(n2)N(C)C(c2cc(F)cc(F)c2)CO3)cnc1-n1cnc(C#N)c1` (single isomer, unassigned; (+)) [Example 211A, (+)-1-(5-((7-(3,5-difluorophenyl)-8-methyl-7,8-dihydro-6H-pyrimido [5,4-b] [1, 4]oxazin-2-yl)amino)-3-methoxypyridin-2-yl)-1H-imidazole-4-carbonitrile], the IC50 was found to be 179 nM.

Turning to `Cc1cn(-c2ccc(Nc3ncc4c(n3)N(C)C(c3cc(F)ccc3C(F)(F)F)CO4)cc2F)cn1` (single isomer, unassigned; (-)) [Example 104A], the IC50 is 526 nM.

On to `COc1cc(Nc2ncc3c(n2)N(C)C(c2cc(F)c(F)c(F)c2)CO3)ccc1-n1cnc(C)c1` (single isomer, unassigned; (-)) [Example 40A], for which the IC50 came to 279 nM.

`Cc1cc(-c2ccc(Nc3ncc4c(n3)N(C)C(c3cc(F)c(F)c(F)c3)CO4)cc2F)ccn1` (single isomer, unassigned; (+)) [Example 36A]: the IC50 turned out to be 107 nM.

`COc1cc(Nc2ncc3c(n2)N(C)[C@H](COc2ccccc2)CO3)ccc1-n1cnc(C)c1` [Example 201]: the IC50 was 143 nM.

As for `COc1nc(Nc2ncc3c(n2)N(C)C(c2cc(F)cc(F)c2)CO3)ccc1-n1cnc(C)c1` (single isomer, unassigned; (-)) [Example 179A], the half-maximal inhibitory concentration (IC50) was greater than 3000 nM.

For `Cc1cc(-c2ccc(Nc3ncc4c(n3)N(C)C(c3ccccc3C)CO4)cc2)ccn1` (single isomer, unassigned; (-)) [Example 29A], the IC50 was 1100 nM.

As for `COc1cc(Nc2ncc3c(n2)N(C)C2(CCOCC2)CO3)ccc1-n1cnc(C)c1` [Example 273], the IC50 amounted to 111 nM.

Take `COc1cc(Nc2ncc3c(n2)N(C)C2(CCOCC2)CO3)cnc1-n1cnc(C)c1` [Example 274]: the IC50 stood at 295 nM.

Regarding `COc1cc(Nc2ncc3c(n2)N(C)C(c2ccc(F)cc2)CO3)ccc1-n1cnc(C)c1` (racemic) [Example 49], the IC50 is 36 nM.

In the case of `COc1cc(Nc2ncc3c(n2)N(C)C(c2ccc(F)cc2F)CO3)ccc1-n1cnc(C)c1` (single isomer, unassigned; (+)) [Example 48B], the IC50 amounted to 20 nM.

For `Cc1cn(-c2ccc(Nc3ncc4c(n3)N(C)C(c3cc(F)cc(F)c3)CO4)nc2C#N)cn1` (single isomer, unassigned; (+)) [Example 192B, (+)-6-((7-(3,5-difluorophenyl)-8-methyl-7,8-dihydro-6H-pyrimido [5,4-b] [1, 4]oxazin-2-yl)amino)-3-(4-methyl-1H-imidazol-1-yl) picolinonitrile], the IC50 is 576 nM.

For the compound `COc1cc(Nc2ncc3c(n2)N(C)C(c2ccc(F)cc2C(F)(F)F)CO3)ccc1-n1cnc(C)c1` (single isomer, unassigned; (-)) [Example 94A], the IC50 was found to be 78 nM.

Regarding `COc1cc(Nc2ncc3c(n2)N(C)C(c2cc(F)cc(F)c2)CO3)cnc1-n1cnc(C(F)(F)F)c1` (single isomer, unassigned; (-)) [Example 206B], the IC50 was 704 nM.

For `COc1cc(Nc2ncc3c(n2)N(C)C(c2cc(F)c(F)cc2Cl)CO3)ccc1-n1cnc(C)c1` (single isomer, unassigned; (-)) [Example 103B], the IC50 came out at 219 nM.

Turning to `COc1cc(Nc2ncc3c(n2)N(C)C(c2ccccc2C(F)(F)F)CO3)ccc1-c1ccnc(C)c1` (single isomer, unassigned; (-)) [Example 70A], the IC50 was determined as 339 nM.

On to `COc1cc(Cl)c(C2COc3cnc(Nc4ccc(-n5cnc(C)c5)c(OC)c4)nc3N2C)cc1Cl` (single isomer, unassigned; (+)) [Example 174B], for which the IC50 is 32 nM.

With `COc1cc(Nc2ncc3c(n2)N(C)C(c2ccc(F)cc2)CO3)ccc1-n1cnc(C)c1` (single isomer, unassigned; (+)) [Example 49B], the IC50 came to 9 nM.

Turning to `Cc1cn(-c2ccc(Nc3ncc4c(n3)N(C)C(c3ccc(F)cc3Cl)CO4)cc2F)cn1` (single isomer, unassigned; (+)) [Example 101A], the half-maximal inhibitory concentration (IC50) was 75 nM.

Regarding `COc1cc(Nc2ncc3c(n2)N(C)C(c2ccccc2C(F)(F)F)CO3)ccc1-n1cnc(C)c1` (single isomer, unassigned; (-)) [Example 55A], the IC50 amounted to 102 nM.

Take `Cc1cn(-c2ncc(Nc3ncc4c(n3)N(C)C(C(F)(F)F)CO4)cc2Cl)cn1` (single isomer, unassigned; (-)) [Example 229A]: the IC50 was determined as 215 nM.

`Cc1cn(-c2ccc(Nc3ncc4c(n3)N(C)C(c3cc(F)cc(F)c3)CO4)cc2)cn1` (single isomer, unassigned; (-)) [Example 23A]: the IC50 was determined as 2040 nM.

Turning to `COc1cc(Nc2ncc3c(n2)N(C)C(Cc2ccccc2)CO3)ccc1-n1cnc(C)c1` (racemic) [Example 47], the IC50 worked out at 41 nM.

With `Cc1cn(-c2ccc(Nc3ncc4c(n3)N(C)C(C)CO4)cc2C#N)cn1` (single isomer, unassigned; (-)) [Example 205B, (−)-5-((7,8-dimethyl-7,8-dihydro-6H-pyrimido [5,4-b] [1, 4]oxazin-2-yl)amino)-2-(4-methyl-1H-imidazol-1-yl) benzonitrile], the IC50 worked out at 259 nM.

`COc1cc(Nc2ncc3c(n2)N(C)C(C(F)(F)F)CO3)ccc1-n1cnc(C)n1` (single isomer, unassigned; (-)) [Example 242A]: the IC50 worked out at 78 nM.

For `COc1cc(Nc2ncc3c(n2)N(C)C(c2cc(F)cc(F)c2)CO3)ccc1C#N` (single isomer, unassigned; (-)) [Example 237A, (−)-4-((7-(3,5-difluorophenyl)-8-methyl-7,8-dihydro-6H-pyrimido [5,4-b] [1, 4]oxazin-2-yl)amino)-2-methoxybenzonitrile], the IC50 was greater than 3000 nM.

Take `COc1cc(Nc2ncc3c(n2)N(C)C(C)CO3)ccc1-c1ccnc(C)c1` (single isomer, unassigned; (-)) [Example 110A]: the IC50 was 199 nM.

`COc1cc(Nc2ncc3c(n2)N(C)C(c2ccccc2OC(F)(F)F)CO3)ccc1-n1cnc(C)c1` (single isomer, unassigned; (-)) [Example 60A]: the IC50 worked out at 92 nM.

With `COc1nc(Nc2ncc3c(n2)N(C)C(c2cc(F)cc(F)c2)CO3)ccc1-n1cnc(C)c1` (single isomer, unassigned; (+)) [Example 179B], the IC50 was 287 nM.

For the compound `COc1cc(Nc2ncc3c(n2)N(C)C2(CO3)CC(F)(F)C2)ccc1-n1cnc(C)c1` [Example 276], the concentration for half-maximal inhibition (IC50) amounted to 56 nM.

On to `Cc1cn(-c2ccc(Nc3ncc4c(n3)N(C)C(c3ccccc3C)CO4)cc2)cn1` (single isomer, unassigned; (-)) [Example 43B], for which the IC50 was greater than 300 nM.

On to `COc1cc(Nc2ncc3c(n2)N(C)C(c2ccccc2C)CO3)ccc1-c1ccnc(C)c1` (single isomer, unassigned; (+)) [Example 35B], for which the IC50 amounted to 35 nM.

`Cc1cn(-c2ccc(Nc3ncc4c(n3)N(C)C(C)CO4)cn2)cn1` (single isomer, unassigned; (+)) [Example 194A]: the IC50 came to 970 nM.

For `COc1cc(Nc2ncc3c(n2)N(C)C(c2cc(F)cc(F)c2)CO3)ccc1-c1ccnc(C)c1` (racemic) [Example 42], the IC50 turned out to be 47 nM.
